pIC50: −log10 of the molar value. Like-named read-outs stand apart in the source and are kept apart here. Numbered stars: 1 amine (or outer) side, 2 acyl side, 3 side chain; on linkers, the order of the positions; unused ones are H or OH. Bridge positions count the residues as written; N and C are the ends. Square brackets hold non-standard residues; d marks the D form. Peptide text beside a SMILES is read from it. I, II: the chains in the order shown. ξ: configuration not given here. Phe(4-COOH) = N[C@@H](Cc1ccc(C(=O)O)cc1)C(=O)O; Phe(4-tBu) = CC(C)(C)c1ccc(C[C@H](N)C(=O)O)cc1; 1Nal = N[C@@H](Cc1cccc2ccccc12)C(=O)O; Diglycolyl = O=C(COCC(=O)[*:2])[*:1]; NMeR = CN[C@@H](CCCNC(=N)N)C(=O)O; β3hE = N[C@@H](CCC(=O)O)CC(=O)O; Thr(3ξ) = CC(O)[C@H](N)C(=O)O; NMeK = CN[C@@H](CCCCN)C(=O)O; Pen = CC(C)(S)[C@H](N)C(=O)O; dNMeK = CN[C@H](CCCCN)C(=O)O Where only a bound is given, the exact number is not on record here.

In the assay the target is T1, α4β7 (Mus musculus, UniProt P26011+Q00651).
T1 construct: host or cells: TK1 mouse T cells
The assay can be described thus: α4β7 Cell Adhesion Assay (Mouse), TK1 cells. Type of assay: cell-based. As for the experimental part: TK1 cells (ATCC # ATCC-CRL-2396) were cultured in RPMI 1640 with 2 mM L-glutamine adjusted to contain 1.5 g/L sodium bicarbonate, 4.5 g/L glucose, 10 mM HEPES, and 1.0 mM sodium pyruvate (ATCC#30-2001) and supplemented with 0.1 mM non-essential amino acids, (ATCC #30-2116) 0.05 mM 2-mercaptoethanol (Invitrogen #21985) and 10% serum (Fetal Bovine Serum, Invitrogen #16140-071), and Penicillin-Streptomycin (Invitrogen #15140-122) at 100 units of penicillin and 100 μg of streptomycin per ml. The cells were washed two times in DMEM medium (ATCC #30-2002) supplemented with 0.1% BSA, 10 mM HEPES pH 7 and 1 mM MnCl2. The cells were re-suspended in supplemented DMEM medium at a density of 4×10^6 cells/ml.
A Nunc MaxiSorp plate was coated with Recombinant human MAdCAM-1 Fc Chimera (R&D #6065-MC) at 200 ng per well in 100 μl per well in 1×PBS and incubated at 4° C. overnight. The solution was then removed by shaking, blocked with 250 ul per well PBS containing 1% BSA, and incubated at 37° C. for 1 hr. The solution was removed by shaking. DATK 32 (anti-mouse α4β7) and peptides were diluted by serial dilution in a final volume of 50 ul per well (2× concentration). To each well, 50 ul of cells (200,000 cells) are added and the plate is incubated at 37° C., 5% CO2 for 30-45 min to allow cell adhesion. The plate was manually washed three times with supplemented DMEM, 100 ul per wash. After the final wash, 100 ul/well of supplemented DMEM and […] of MTT reagent (ATTC cat#30-1010K) was added to each well. Wells were incubated at 37° C. with 5% CO2 for 2-3 hrs until purple precipitate was visible. 100 μl of Detergent Reagent (ATTC cat#30-1010K) was added to each well. The plate was then wrapped with Para film to prevent evaporation, and left overnight at room temperature in the dark. The plate was shaken for 5 min and the absorbance at 570 nm was measured. To calculate the dose response, the absorbance value of control wells not containing cells was subtracted from each test well.

Setting [1] is: Table 3-B, Potency (α4β7), range classes, read-out: α4β7 cell(MU) IC50.

T1 sequence (Q00651 34-1039 limits assumed): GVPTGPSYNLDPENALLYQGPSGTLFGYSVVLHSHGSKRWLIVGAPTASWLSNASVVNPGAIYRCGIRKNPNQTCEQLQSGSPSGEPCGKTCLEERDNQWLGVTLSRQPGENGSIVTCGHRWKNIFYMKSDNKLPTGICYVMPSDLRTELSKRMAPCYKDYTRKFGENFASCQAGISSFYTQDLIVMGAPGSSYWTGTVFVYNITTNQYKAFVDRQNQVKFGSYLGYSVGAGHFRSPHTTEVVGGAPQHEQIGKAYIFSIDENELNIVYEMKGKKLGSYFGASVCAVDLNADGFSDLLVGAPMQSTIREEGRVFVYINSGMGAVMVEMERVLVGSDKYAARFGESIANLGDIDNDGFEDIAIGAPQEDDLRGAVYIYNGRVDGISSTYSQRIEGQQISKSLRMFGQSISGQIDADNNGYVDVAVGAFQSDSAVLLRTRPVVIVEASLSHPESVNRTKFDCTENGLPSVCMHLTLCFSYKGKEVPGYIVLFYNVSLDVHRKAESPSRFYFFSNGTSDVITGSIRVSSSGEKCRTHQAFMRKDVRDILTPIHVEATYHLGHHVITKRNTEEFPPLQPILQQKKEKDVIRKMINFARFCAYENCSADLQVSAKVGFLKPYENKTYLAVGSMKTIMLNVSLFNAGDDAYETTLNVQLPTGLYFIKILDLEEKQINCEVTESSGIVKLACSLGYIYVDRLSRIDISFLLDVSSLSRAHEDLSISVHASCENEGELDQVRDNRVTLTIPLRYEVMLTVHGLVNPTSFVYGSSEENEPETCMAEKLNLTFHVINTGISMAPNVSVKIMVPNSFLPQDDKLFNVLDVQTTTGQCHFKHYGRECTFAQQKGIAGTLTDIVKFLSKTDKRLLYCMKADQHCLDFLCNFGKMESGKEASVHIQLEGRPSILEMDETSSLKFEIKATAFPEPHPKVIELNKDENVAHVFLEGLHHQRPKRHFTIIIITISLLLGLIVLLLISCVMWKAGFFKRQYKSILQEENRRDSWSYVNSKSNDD
T1 sequence (P26011 20-806): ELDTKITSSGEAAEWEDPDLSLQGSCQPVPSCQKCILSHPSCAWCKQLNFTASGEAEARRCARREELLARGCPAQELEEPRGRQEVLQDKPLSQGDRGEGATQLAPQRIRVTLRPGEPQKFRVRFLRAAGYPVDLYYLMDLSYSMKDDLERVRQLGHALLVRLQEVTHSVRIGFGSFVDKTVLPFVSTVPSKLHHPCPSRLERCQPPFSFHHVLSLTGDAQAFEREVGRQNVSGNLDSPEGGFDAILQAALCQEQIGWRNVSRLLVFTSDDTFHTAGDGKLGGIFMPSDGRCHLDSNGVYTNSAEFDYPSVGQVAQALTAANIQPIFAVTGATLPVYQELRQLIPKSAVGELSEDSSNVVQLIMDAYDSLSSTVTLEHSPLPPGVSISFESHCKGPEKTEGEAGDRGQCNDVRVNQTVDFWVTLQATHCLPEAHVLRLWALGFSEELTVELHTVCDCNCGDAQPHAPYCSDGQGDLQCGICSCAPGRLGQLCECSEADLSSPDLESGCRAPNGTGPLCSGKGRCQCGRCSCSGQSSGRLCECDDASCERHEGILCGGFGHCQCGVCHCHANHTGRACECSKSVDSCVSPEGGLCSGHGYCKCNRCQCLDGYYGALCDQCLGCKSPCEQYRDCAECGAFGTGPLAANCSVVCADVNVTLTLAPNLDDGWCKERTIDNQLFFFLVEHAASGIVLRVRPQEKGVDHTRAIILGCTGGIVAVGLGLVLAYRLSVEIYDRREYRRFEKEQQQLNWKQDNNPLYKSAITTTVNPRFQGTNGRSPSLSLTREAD

Turning to `CC(=O)N[C@@H]1C(=O)N(C)[C@@H](CCCNC(=N)N)C(=O)N[C@@H](CO)C(=O)N[C@@H](CC(=O)O)C(=O)N[C@@H](C(C)O)C(=O)N[C@@H](CC(C)C)C(=O)N[C@H](C(=O)N[C@@H](Cc2ccc(C(C)(C)C)cc2)C(=O)N[C@@H](CCC(=O)O)CC(=O)N[C@H](CCCCNC(=O)COCC(=O)NCCCC[C@@H](NC(=O)C[C@H](CCC(=O)O)NC(=O)[C@H](Cc2ccc(C(C)(C)C)cc2)NC(=O)[C@H]2NC(=O)[C@H](CC(C)C)NC(=O)[C@H](C(C)O)NC(=O)[C@H](CC(=O)O)NC(=O)[C@H](CO)NC(=O)[C@H](CCCNC(=N)N)N(C)C(=O)[C@@H](NC(C)=O)C(C)(C)SSC2(C)C)C(N)=O)C(N)=O)C(C)(C)SSC1(C)C` (stereo partly drawn) [Peptide X, [Ac-Pen-(N-Me-Arg)-Ser-Asp-Thr-Leu-Pen-(Phe(4-tBu))-(β-homoGlu)-(D-Lys)]2-DIG] (I: Ac-[Pen][NMeR]SD[Thr(3ξ)]L[Pen][Phe(4-tBu)][β3hE][dK]-NH2 / II: Ac-[Pen][NMeR]SD[Thr(3ξ)]L[Pen][Phe(4-tBu)][β3hE][dK]-NH2; disulfide I:1-I:7, II:1-II:7; linker I:10-II:10 via Diglycolyl), the pIC50 (in general, the IC50 on a negative log10 scale, so that one unit is a factor of ten) (mouse T cell TK1, read-out: IC50 for blocking adhesion of TK1 cell line to MAdCAM-1) is 9.30.

On to `CC(=O)N[C@@H]1C(=O)N(C)[C@@H](CCCNC(=N)N)C(=O)N[C@@H](CO)C(=O)N[C@@H](CC(=O)O)C(=O)N[C@@H]([C@@H](C)O)C(=O)N[C@@H](CC(C)C)C(=O)N[C@H](C(=O)N[C@@H](Cc2cccc3ccccc23)C(=O)N[C@@H](CCC(=O)O)C(=O)N(C)[C@H](CCCCNC(=O)COCC(=O)NCCCC[C@H](C(N)=O)N(C)C(=O)[C@H](CCC(=O)O)NC(=O)[C@H](Cc2cccc3ccccc23)NC(=O)[C@H]2NC(=O)[C@H](CC(C)C)NC(=O)[C@H]([C@@H](C)O)NC(=O)[C@H](CC(=O)O)NC(=O)[C@H](CO)NC(=O)[C@H](CCCNC(=N)N)N(C)C(=O)[C@@H](NC(C)=O)C(C)(C)SSC2(C)C)C(N)=O)C(C)(C)SSC1(C)C` [compound 44] (I: Ac-[Pen][NMeR]SDTL[Pen][1Nal]E[dNMeK]-NH2 / II: Ac-[Pen][NMeR]SDTL[Pen][1Nal]E[dNMeK]-NH2; disulfide I:1-I:7, II:1-II:7; linker I:10-II:10 via Diglycolyl), for which the pIC50 under setting [1] was greater than 8.00.

Take `CC(=O)N[C@@H]1C(=O)N(C)[C@@H](CCCNC(=N)N)C(=O)N[C@@H](CO)C(=O)N[C@@H](CC(=O)O)C(=O)N[C@@H]([C@@H](C)O)C(=O)N[C@@H](CC(C)C)C(=O)N[C@H](C(=O)N[C@@H](Cc2ccc(C(=O)O)cc2)C(=O)N[C@@H](CCC(=O)O)C(=O)N(C)[C@@H](CCCCNC(=O)COCC(=O)NCCCC[C@@H](C(N)=O)N(C)C(=O)[C@H](CCC(=O)O)NC(=O)[C@H](Cc2ccc(C(=O)O)cc2)NC(=O)[C@H]2NC(=O)[C@H](CC(C)C)NC(=O)[C@H]([C@@H](C)O)NC(=O)[C@H](CC(=O)O)NC(=O)[C@H](CO)NC(=O)[C@H](CCCNC(=N)N)N(C)C(=O)[C@@H](NC(C)=O)C(C)(C)SSC2(C)C)C(N)=O)C(C)(C)SSC1(C)C` [compound 147] (I: Ac-[Pen][NMeR]SDTL[Pen][Phe(4-COOH)]E[NMeK]-NH2 / II: Ac-[Pen][NMeR]SDTL[Pen][Phe(4-COOH)]E[NMeK]-NH2; disulfide I:1-I:7, II:1-II:7; linker I:10-II:10 via Diglycolyl): the pIC50 under setting [1] is greater than 8.00.

The values are drawn from patent US9809623B2, “α4β7 peptide monomer and dimer antagonists” (Protagonist Therapeutics, Inc., priority 2014, dated 2017).
